Laboratory results taken from patent publication US10670605B2, “Cysteine reactive probes and uses thereof” (The Scripps Research Institute, priority 2015, dated 2020).
Blank lines part the entries; values can stand above or below the molecule they belong to.

How the values were obtained:
Test in all cases: Competitive isoTOP-ABPP in situ (fragment-treated cells)
Format in all cases: cell-based
[1] = target: T1, cysteines in MDA-MB-231 and Ramos cells (Homo sapiens, UniProt Q99757)
T1 sequence (Q99757 60-166): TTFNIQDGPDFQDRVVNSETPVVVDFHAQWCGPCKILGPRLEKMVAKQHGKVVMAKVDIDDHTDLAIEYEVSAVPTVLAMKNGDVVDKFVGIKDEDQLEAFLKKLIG

[2] = target: T2, cysteines in MDA-MB-231 and Ramos cells (Homo sapiens, UniProt P52597)
T2 sequence (P52597 1-415): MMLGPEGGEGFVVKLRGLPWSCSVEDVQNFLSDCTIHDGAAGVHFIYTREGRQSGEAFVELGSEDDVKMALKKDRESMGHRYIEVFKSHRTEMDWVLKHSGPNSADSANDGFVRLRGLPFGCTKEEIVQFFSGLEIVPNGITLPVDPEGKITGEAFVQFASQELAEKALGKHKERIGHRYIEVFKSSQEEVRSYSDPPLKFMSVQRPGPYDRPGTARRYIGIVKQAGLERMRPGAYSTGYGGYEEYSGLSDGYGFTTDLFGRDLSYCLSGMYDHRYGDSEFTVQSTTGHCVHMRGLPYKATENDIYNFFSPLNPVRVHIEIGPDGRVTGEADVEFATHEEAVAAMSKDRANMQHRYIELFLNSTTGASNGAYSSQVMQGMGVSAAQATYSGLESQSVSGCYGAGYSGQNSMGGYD

[3] = target: T3, cysteines in MDA-MB-231 and Ramos cells (Homo sapiens, UniProt Q86SX6)
T3 sequence (Q86SX6 32-157): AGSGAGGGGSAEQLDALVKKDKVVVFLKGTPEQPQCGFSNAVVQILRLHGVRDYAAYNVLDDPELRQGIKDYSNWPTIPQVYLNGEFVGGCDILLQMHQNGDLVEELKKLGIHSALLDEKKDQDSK

[4] = target: T4, cysteines in MDA-MB-231 and Ramos cells (Homo sapiens, UniProt Q9HAV7)
T4 sequence (Q9HAV7 28-217): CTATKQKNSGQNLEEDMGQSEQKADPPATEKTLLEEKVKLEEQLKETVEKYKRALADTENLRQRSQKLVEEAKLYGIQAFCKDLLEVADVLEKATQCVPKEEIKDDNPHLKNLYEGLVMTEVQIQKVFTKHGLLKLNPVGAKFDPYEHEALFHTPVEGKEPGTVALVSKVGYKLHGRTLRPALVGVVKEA

[5] = target: T5, cysteines in MDA-MB-231 and Ramos cells (Homo sapiens, UniProt P42224)
T5 sequence (P42224 1-750): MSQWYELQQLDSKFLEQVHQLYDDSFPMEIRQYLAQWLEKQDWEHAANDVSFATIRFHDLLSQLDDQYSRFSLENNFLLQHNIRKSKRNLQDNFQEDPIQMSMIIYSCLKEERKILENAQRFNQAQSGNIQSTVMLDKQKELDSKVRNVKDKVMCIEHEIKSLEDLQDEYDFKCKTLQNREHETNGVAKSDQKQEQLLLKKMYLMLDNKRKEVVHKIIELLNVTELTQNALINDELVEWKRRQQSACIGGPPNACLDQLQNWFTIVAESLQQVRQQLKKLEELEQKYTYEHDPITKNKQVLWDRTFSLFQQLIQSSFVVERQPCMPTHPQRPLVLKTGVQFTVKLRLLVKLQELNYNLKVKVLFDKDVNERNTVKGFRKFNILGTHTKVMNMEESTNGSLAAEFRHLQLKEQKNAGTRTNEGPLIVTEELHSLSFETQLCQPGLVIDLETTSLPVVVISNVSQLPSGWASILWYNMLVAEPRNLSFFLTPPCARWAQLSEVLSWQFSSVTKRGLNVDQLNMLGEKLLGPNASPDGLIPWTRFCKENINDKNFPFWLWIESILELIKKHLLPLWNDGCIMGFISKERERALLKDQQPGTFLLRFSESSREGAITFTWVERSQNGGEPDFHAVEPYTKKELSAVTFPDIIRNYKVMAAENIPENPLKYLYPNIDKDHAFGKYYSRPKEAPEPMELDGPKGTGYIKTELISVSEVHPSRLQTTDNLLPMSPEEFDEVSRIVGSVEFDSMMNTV

[6] = target: T6, cysteines in MDA-MB-231 and Ramos cells (Homo sapiens, UniProt P30101)
T6 sequence (P30101 25-505): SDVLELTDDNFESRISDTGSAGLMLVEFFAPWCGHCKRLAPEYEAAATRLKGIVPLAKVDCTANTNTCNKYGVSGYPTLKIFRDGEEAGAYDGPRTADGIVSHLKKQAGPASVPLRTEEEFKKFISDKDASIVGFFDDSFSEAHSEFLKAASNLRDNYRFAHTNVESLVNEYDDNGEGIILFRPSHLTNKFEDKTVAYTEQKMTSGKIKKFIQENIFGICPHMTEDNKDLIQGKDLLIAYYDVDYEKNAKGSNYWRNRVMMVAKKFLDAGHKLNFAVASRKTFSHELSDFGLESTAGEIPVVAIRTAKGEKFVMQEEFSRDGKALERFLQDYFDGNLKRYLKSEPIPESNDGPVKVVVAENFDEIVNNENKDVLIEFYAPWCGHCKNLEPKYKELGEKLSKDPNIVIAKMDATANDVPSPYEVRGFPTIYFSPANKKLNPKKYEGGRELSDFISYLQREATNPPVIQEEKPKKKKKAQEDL

[7] = target: T7, cysteines in MDA-MB-231 and Ramos cells (Homo sapiens, UniProt O95571)
T7 sequence (O95571 8-254): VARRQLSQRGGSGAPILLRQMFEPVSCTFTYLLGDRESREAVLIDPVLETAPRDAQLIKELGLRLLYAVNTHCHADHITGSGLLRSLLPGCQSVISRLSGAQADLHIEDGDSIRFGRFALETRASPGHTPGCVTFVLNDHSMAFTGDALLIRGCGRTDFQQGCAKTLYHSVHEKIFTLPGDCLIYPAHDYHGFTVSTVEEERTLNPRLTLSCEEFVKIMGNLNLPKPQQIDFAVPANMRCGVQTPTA

[8] = target: T8, cysteines in MDA-MB-231 and Ramos cells (Homo sapiens, UniProt P04183)
T8 sequence (P04183 1-234): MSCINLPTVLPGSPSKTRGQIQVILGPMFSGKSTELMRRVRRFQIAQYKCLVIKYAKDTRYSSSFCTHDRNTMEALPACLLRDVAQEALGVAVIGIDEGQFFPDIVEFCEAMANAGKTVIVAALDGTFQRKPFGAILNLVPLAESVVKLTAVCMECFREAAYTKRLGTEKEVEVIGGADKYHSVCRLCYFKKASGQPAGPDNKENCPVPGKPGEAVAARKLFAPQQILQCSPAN

isoTOP-ABPP reactivity Q99757_C90 TXN2 ([1]; 200 μM, insitu, 231): 10.1 | isoTOP-ABPP reactivity P52597_C267 HNRNPF ([2]; 200 μM, insitu, 231): 4.2 | isoTOP-ABPP reactivity Q865X6_C67 GLRX5 ([3]; 200 μM, insitu, 231): 1.1 | isoTOP-ABPP reactivity Q9HAV7_C124 GRPEL1 ([4]; 200 μM, insitu, 231): 3.2 | isoTOP-ABPP reactivity P42224_C492 STAT1 ([5]; 200 μM, insitu, 231): 16.9 | isoTOP-ABPP reactivity P30101_057 PDIA3 ([6]; 200 μM, insitu, 231): 2.2 | isoTOP-ABPP reactivity P30101_C406 PDIA3 ([6]; 200 μM, insitu, 231): 3.2 | isoTOP-ABPP reactivity O95571_C170 ETHE1 ([7]; 200 μM, insitu, 231): 3.8 | isoTOP-ABPP reactivity P04183_C230 TK1 ([8]; 200 μM, insitu, 231): 1.9
SMILES: COc1ccc2c(c1)CCCN2C(=O)CCl [compound 2]

isoTOP-ABPP reactivity Q99757_C90 TXN2 ([1]; 100 μM in situ 231): 3.6 | isoTOP-ABPP reactivity P52597_C267 HNRNPF ([2]; 100 μM in situ 231): 20.0 | isoTOP-ABPP reactivity Q865X6_C67 GLRX5 ([3]; 100 μM in situ 231): 1.4 | isoTOP-ABPP reactivity Q9HAV7_C124 GRPEL1 ([4]; 100 μM in situ 231): 1.7 | isoTOP-ABPP reactivity P30101_057 PDIA3 ([6]; 100 μM in situ 231): 20.0 | isoTOP-ABPP reactivity P30101_C406 PDIA3 ([6]; 100 μM in situ 231): 9.0 | isoTOP-ABPP reactivity O95571_C170 ETHE1 ([7]; 100 μM in situ 231): 2.3 | isoTOP-ABPP reactivity P04183_C230 TK1 ([8]; 100 μM in situ 231): 0.8
SMILES: COc1ccc(C2CC(c3cccs3)=NN2C(=O)CCl)cc1 (stereo not drawn) [compound 4]

isoTOP-ABPP reactivity Q99757_C90 TXN2 ([1]; 200 μM, insitu, 231): 4.5 | isoTOP-ABPP reactivity Q865X6_C67 GLRX5 ([3]; 200 μM, insitu, 231): 1.0 | isoTOP-ABPP reactivity Q9HAV7_C124 GRPEL1 ([4]; 200 μM, insitu, 231): 2.2 | isoTOP-ABPP reactivity P30101_057 PDIA3 ([6]; 200 μM, insitu, 231): 20.0 | isoTOP-ABPP reactivity P30101_C406 PDIA3 ([6]; 200 μM, insitu, 231): 20.0 | isoTOP-ABPP reactivity O95571_C170 ETHE1 ([7]; 200 μM, insitu, 231): 6.8 | isoTOP-ABPP reactivity P04183_C66 TK1 ([8]; 200 μM, insitu, 231): 2.3
SMILES: COc1cc2c(cc1OC)CN(C(=O)CCl)CC2 [compound 8]

isoTOP-ABPP reactivity Q99757_C90 TXN2 ([1]; 200 μM, insitu, 231): 20.0 | isoTOP-ABPP reactivity P52597_C267 HNRNPF ([2]; 200 μM, insitu, 231): 3.2 | isoTOP-ABPP reactivity Q865X6_C67 GLRX5 ([3]; 200 μM, insitu, 231): 5.1 | isoTOP-ABPP reactivity Q9HAV7_C124 GRPEL1 ([4]; 200 μM, insitu, 231): 4.7 | isoTOP-ABPP reactivity P42224_C492 STAT1 ([5]; 200 μM, insitu, 231): 3.1 | isoTOP-ABPP reactivity P30101_C406 PDIA3 ([6]; 200 μM, insitu, 231): 1.4 | isoTOP-ABPP reactivity O95571_C170 ETHE1 ([7]; 200 μM, insitu, 231): 2.0 | isoTOP-ABPP reactivity P04183_C66 TK1 ([8]; 200 μM, insitu, 231): 7.0 | isoTOP-ABPP reactivity P04183_C230 TK1 ([8]; 200 μM, insitu, 231): 10.0
SMILES: O=C(CCl)N1CCC(Cc2ccccc2)CC1 [compound 9]

isoTOP-ABPP ratio P52597_C267 ([2]; 200 μM, insitu, 231): 2.5 | isoTOP-ABPP ratio P52597_C267 ([2]; 200 μM, insitu, ramos): 2.4 | isoTOP-ABPP ratio Q86SX6_C67 ([3]; 200 μM, insitu, 231): 1.3 | isoTOP-ABPP ratio Q86SX6_C67 ([3]; 200 μM, insitu, ramos): 1.1 | isoTOP-ABPP ratio Q9HAV7_C124 ([4]; 200 μM, insitu, 231): 1.0 | isoTOP-ABPP ratio P42224_C492 ([5]; 200 μM, insitu, 231): 20.0 | isoTOP-ABPP ratio P30101_C57 ([6]; 200 μM, insitu, 231): 3.3 | isoTOP-ABPP ratio P30101_C406 ([6]; 200 μM, insitu, 231): 3.3 | isoTOP-ABPP ratio P30101_C406 ([6]; 200 μM, insitu, ramos): 1.4 | isoTOP-ABPP ratio O95571_C170 ([7]; 200 μM, insitu, 231): 9.0 | isoTOP-ABPP ratio P04183_C230 ([8]; 200 μM, insitu, 231): 1.3
SMILES: O=C(CCl)N1CCN(S(=O)(=O)c2ccccc2F)CC1 [compound 10]

isoTOP-ABPP ratio Q99757_C90 ([1]; 100 μM in situ 231): 2.7 | isoTOP-ABPP ratio P52597_C267 ([2]; 100 μM in situ 231): 1.0 | isoTOP-ABPP ratio Q86SX6_C67 ([3]; 100 μM in situ 231): 1.4 | isoTOP-ABPP ratio Q9HAV7_C124 ([4]; 100 μM in situ 231): 0.9 | isoTOP-ABPP ratio P42224_C492 ([5]; 100 μM in situ 231): 0.7 | isoTOP-ABPP ratio P30101_C57 ([6]; 100 μM in situ 231): 2.2 | isoTOP-ABPP ratio O95571_C170 ([7]; 100 μM in situ 231): 1.2 | isoTOP-ABPP ratio, cysteine P04183_C66 ([8]; 100 μM in situ 231): 0.6
SMILES: Cn1cc(S(=O)(=O)N2CCOCC2)cc1C(=O)NC(=O)CCl [compound 11]

isoTOP-ABPP ratio Q99757_C90 ([1]; 200 μM, insitu, 231): 5.0 | isoTOP-ABPP ratio P52597_C267 ([2]; 200 μM, insitu, 231): 6.8 | isoTOP-ABPP ratio Q86SX6_C67 ([3]; 200 μM, insitu, 231): 1.6 | isoTOP-ABPP ratio Q9HAV7_C124 ([4]; 200 μM, insitu, 231): 1.1 | isoTOP-ABPP ratio P42224_C492 ([5]; 200 μM, insitu, 231): 1.0 | isoTOP-ABPP ratio P30101_C57 ([6]; 200 μM, insitu, 231): 20.0 | isoTOP-ABPP ratio P30101_C406 ([6]; 200 μM, insitu, 231): 20.0 | isoTOP-ABPP ratio O95571_C170 ([7]; 200 μM, insitu, 231): 6.3
SMILES: O=C(CCl)NC(=O)NC12CC3CC(CC(C3)C1)C2 [compound 12]
